# Results published in patent publication US12485078B2, “Personal dental care product for caries treatment” (Credentis AG, priority 2016, dated 2025).
# No end group written: not given here.
# What was measured:
# [1] = self-assembling kinetic by measurements of elastic modulus G' (FIG. 6); assay type: physicochemical; settings: 15 mg/ml; neutral pH; independent of ionic strength (buffers 140-165 mM); 0.1% strain, 37° C., 1 rad/second
# Procedure: P11-4 was prepared at 15 mg/ml with different buffer compositions (see below) measured at 0.1% strain, 37° C. and a frequency of 1 rad/second. Self-assembly of peptide monomers to polymers takes more than 5 min independent of the used ionic strength at neutral pH. • Squares (top line of symbols)−NaCl: Tris (0.055 M)+NaCl, final ionic strength 142 mM; • Artificial saliva (second line of symbols from top): Tris, Ca(NO3)2, KH2PO4 (ratio 0.77:0.14:0.08), ionic strength 142 mM; • Dulbecco's Modified Eagle Medium (DMEM): NaCl, NaHCO3, KCl, CaCl2, MgSO4 (ratio 0.66:0.4:0.05:0.02:0.007), ionic strength 165 mM; • MgSO4: 0.055 M Tris+0.192 M MgSO4 0.14 M Ionic strength
# [2] = Penetration of P11-4 (200 ppm, spiked with 10 ppm ATTO647-P11-4, 25 mM TRIS) into artificial subsurface lesions, confocal microscopy; design: species or system human
# Procedure: Creation of artificial lesions on extracted human molar teeth was performed as described by Lo et al. 2010 (J Dent. 38(4):352-359). To define the position of the demineralized subsurface area (i.e., artificial carious lesion or white spot), the tooth was covered with colourless nail varnish, leaving a window of approximately 4×4 mm. The tooth was placed in demineralization buffer (2.2 mM CaCl2, 2.2 mM NaH2PO4, 50 mM acetic acid; pH adjusted with 1 M KOH to 4.4) for 3 d at 37° C. To ensure that all pores are open, as in a typical active caries lesion, the resulting subsurface lesions were treated with 10 μL of 2% NaClO (incubation for 1 min), rinsed, and air-dried at room temperature.
# • A 200 ppm (i.e., 200 μg/ml) solution of P11-4 (SEQ ID NO: 2), spiked with 10 ppm ATTO647-P11-4 (fluorescence labelled P11-4 (SEQ ID NO: 6): Ac-QQRFEWEFEQQSGSGC-(ATTO647)-NH2), i.e., 1:20, in 25 mM TRIS buffer was prepared at different pH, in particular, at 8.4 or 8.5 or 6.3, 6.5 or 6.8) • As specified in the table below, tooth were optionally pretreated, e.g., by incubation in human saliva for one day (about 24 hours), optionally followed by 5 min sonication (258 hz with a sonic toothbrush, Sonicare Diamond Clean® (Philips)) or by immersion in 2% NaClO for 1 min. • Tooth were immersed in the P11-4 solution for a defined period of time, 1, 2 or 5 min, and then removed and washed in water for 10 min or in remineralization buffer (2 mM Ca(NO3), 1.2 mM KHPO4, and 60 mM Tris/HCl, pH adjusted to 7.4 with 1 M KOH) for 4 days and/or 6 days. • Confocal assessment after 1, 2 or 5 min incubation was carried out while the teeth were in P11-4 solution, and optionally, after washing in water or in remineralization buffer after 10 min or 4 or 6 days. c) Confocal Microscopy
# Samples were placed in a μ-slide I (ibidi, Martinsried) in dest. water and analyzed by a confocal laser microscope (Olympus IX81). The recorded stack of four 2-dimensional images each projected the lesion volume of 51.4 μm thickness, giving a total assessment depth of 205 μm (objective: UPLSAPO 20×/NA 0.75; helium-neon gas laser; excitation: 633 nm and emission: 668 nm). Images were analyzed by Olympus software (FluoView FV1000).
# [3] = self-assembling kinetic by quartz crystal microbalance with dissipation monitoring (QCM-D, FIG. 7); assay type: physicochemical; settings: 10 mg/ml P11-4 in PBS pH 8.5 on P11-4 coated amine-coupling sensor
# Procedure: P11-4 peptide was layered on the surface of the amine-coupling sensor at 1 mg/ml in PBS at pH8.5. After 1 hour and 1 hour 25 minutes, the sensor was washed with PBS pH 8.5. After 1 hour and 38 minutes, 10 mg/ml P11-4 peptide in PBS pH 8.5 were injected. After 2 hours, 0.1 M HCl were injected to induce self-assembly.
# It can be seen that essentially complete self-assembly has occurred about 30 min after injection of 0.1 M HCl. Resonance frequency F (left scale, Hz) and energy dissipation factor D (right scale), triangle=frequency, square=dissipation are shown.
# [4] = pH at which the peptide starts to undergo self-assembly; assay type: physicochemical; settings: in solution
# Source text: As used herein, the pH at which the self-assembling peptide starts to undergo self-assembly refers to the pH below which a significant extent of self-assembly of the peptides in solution is observed, which means that at least about 25%, about 30%, about 35%, about 40%, about 45%, about 50%, about 55%, about 60%, about 65%, about 70%, about 75%, about 80%, about 85%, about 90%, about 95%, about 99% or even about 100% of the peptides found in the dental care product are assembled. In a preferred embodiment, at least about 25% of the peptides found in the dental care product are assembled below the pH at which the peptide starts to undergo self-assembly.
# Further, the skilled person is aware of numerous methods to determine the pH at which a peptide of the present invention will start self-assembly at a given ionic strength. Suitable methods are denoted e.g. in a publication by Aggeli et al. (2003, J Am Chem Soc, 125, 9619-9628).
sequence,measurement,setting,value
QQRFEWEFEQQ [self-assembling peptide of 11 amino acids],time for self-assembly of peptide monomers to polymers,[1],more than 5 min
same,peptide in the lesions after 4 days' incubation in remineralization buffer,"[2]; pH8.5, FIG. 9Be",Lower but significant amounts
same,peptide in the lesions after 1 min incubation,"[2]; pH8.5, teeth 10 and 1, FIG. 9Bb",already detectable
same,peptide in the lesions after 2 min or 5 min incubation,"[2]; pH8.5, teeth 10 and 1, FIG. 9Bc, 9Bd",most peptide was detected
same,effect of incubation in remineralization buffer after contact with P11-4 containing solution,[2]; remineralization buffer versus water wash (tooth 10 versus tooth 2),improves maintenance of the self-assembling peptide in the lesion
same,effect of pellicle formation by saliva on infiltration at pH 6.3-6.8,"[2]; teeth 3, 13",further decreased infiltration by peptide
same,peptide detectable in the lesions after incubation at pH 6.3-6.8 (polymerized form),"[2]; teeth 4, 12, 3, 13, versus incubation at pH 8.4 or 8.5",lower amounts of peptide
same,negative effect of pellicle after cleaning by sonication or NaClO,"[2]; teeth ZR3 (sonication) and ZR2 (NaClO), after incubation with human saliva",could be compensated for
same,effect of sonification pretreatment before incubation on peptide in the lesions,"[2]; tooth ZR1, pH 8.5",increased presence of peptide in the lesions
same,peptide detected after pellicle formation and cleaning by sonification,[2]; versus no pre-incubation with saliva,even higher amounts than without pre-incubation with saliva
same,time to essentially complete self-assembly after injection of 0.1 M HCl,[3],about 30 min
same,pH at which the self-assembling peptides start to undergo self-assembly,[4],about 7.5
